Experiment [1] relates to d(G5C5)2 (DNA, duplex) GGGGGCCCCC
The experiment can be described thus: luminescence titration at 630 nm, Bard fit. The conditions noted are these: K+ (50 mM potassium phosphate), pH 7, per base.

Experiment [2] relates to hTel (hybrid-1 quadruplex, K+ stabilized) (DNA, G4) TTGGGTTAGGGTTAGGGTTAGGGA
The experiment can be described thus: luminescence titration at 630 nm, Bard fit. The conditions noted are these: K+ (50 mM potassium phosphate), pH 7, per base.

Experiment [3] concerns polyG (polyguanylic acid) (RNA, polymer) G. The experiment is described as follows: luminescence quenching and UV-vis hypochromism titration. The conditions noted are these: qualitative; enantiomer not stated.

As for `N#Cc1cccc2nc3c4cccnc4c4ncccc4c3nc12.[Ru+2].c1cnc2c(ccc3nccnc32)n1.c1cnc2c(ccc3nccnc32)n1`, the K b in experiment [1] (binding-site size 2.1(±0.1)) is 7.8(±0.8) × 10^5 M^-1; in experiment [1] (binding-site size 2.2(±0.1)), 1.3(±0.2) × 10^6 M^-1; in experiment [2] (binding-site size 1.4(±0.1)), 5.7(±0.2) × 10^5 M^-1; in experiment [2] (binding-site size 2.7(±0.1)), 2.7(±0.2) × 10^5 M^-1. The binding result in experiment [3] is “yes”.

The values are drawn from PMC12371865 (2025).
